Legend:
[1] = In vitro cytotoxic assay, Caco-2; format: cell-based; details: human, Caco-2 cells (colon cancer cell line); further: 0.1-25 µM tested
Description: (§1) Skin normal fibroblastic cells were purchased from Lonza (Basel, Switzerland). […] All culture media were supplemented by 10% of FBS, 1% of penicillin–streptomycin and 2 mM glutamine.
(§2) Chemicals were solubilized in DMSO at a concentration of 10 mM (stock solution) and diluted in culture medium to the desired final concentrations. […] Cells were plated in 96-well plates (4000 cells/well). Twenty-four hours after seeding, the cells were exposed to chemicals. […] Image acquisition and analysis were performed using a Cellomics ArrayScan VTI/HCS Reader (ThermoScientific, Les Ulis, France). The survival percentages were calculated as the percentage of cell number after compound treatment over cell number after DMSO treatment. The relative IC50 values were calculated using the curve fitting XLfit 5.5.0.5 (idbs) integrated in Microsoft Excel as an add-on.
(§3) 4.3.1. Cell culture. Skin normal fibroblastic cells are purchased from Lonza (Basel, Switzerland). Huh7- […]
(§4) from ATCC (American Type Culture Collection). […]
(§5) supplemented by 10% of FBS, 1% of penicillin-streptomycin and 2 mM glutamine.
(§6) 4.3.2. Cytotoxic assay. Chemicals were solubilized in DMSO at a concentration of 10 mM (stock solution) and diluted in culture medium to the desired final concentrations. The dose effect cytotoxic assays (IC50 determination) were performed by increasing the concentrations of each chemical (final well […]
(§7) Cells were plated in 96-well plates
(§8) (4000 cells/well). Twenty-four hours after seeding, cells were exposed to chemicals. After 48h of treatment, cells were washed in PBS and fixed in cooled 90% ethanol/5% acetic acid for 20 min and the […]
(§9) Image acquisition and analysis were performed using a Cellomics ArrayScan VTI/HCS Reader (ThermoScientific). The survival percentages were calculated as the percentage of cell number after compound treatment over cell number after DMSO treatment. The relative IC50 were calculated using the curve fitting XLfit 5.5.0.5 (idbs) integrated in Microsoft Excel as an add-on. The 4 Parameter Logistic Model or Sigmoidal Dose-Response Model describing the sigmoid-shaped response pattern was used (fit = (A+[(B-A)/(1+[(C/x)^D])]) where fit is the response and X is the tested concentration of the compound. The lower asymptote is A (also referred to as the bottom of the curve or lower plateau or the min) and the upper asymptote is B (also referred to as the top of the curve or upper plateau or the max). The slope of the linear part of the curve is described by the factor D. The parameter C is the concentration corresponding to the response midway between A and B. C is called “relative IC50” because it refers to the maximum response obtained by a […]
(§10) The results are represented as the mean ± standard error (SE) calculated from at least three independent experiments.

[2] = In vitro cytotoxic assay, HCT-116; format: cell-based; details: human, HCT-116 cells (colon cancer cell line)
Description: as §1, §2, §3, §4, §5, §6, §7, §8, §9, §10

[3] = In vitro cytotoxic assay, MDA-MB-231; format: cell-based; details: human, MDA-MB-231 cells (breast cancer cell line); read-out: In vitro cytotoxic activity IC50, MBA-MB-231; further: 0.1-25 µM tested
Description: as §1, §2, §3, §4, §5, §6, §7, §8, §9, §10

[4] = In vitro cytotoxic assay, MCF-7; format: cell-based; details: human, MCF-7 cells (breast cancer cell line); further: 0.1-25 µM tested
Description: as §1, §2, §3, §4, §5, §6, §7, §8, §9, §10

[5] = In vitro cytotoxic assay, Huh7-D12; format: cell-based; details: human, Huh7-D12 cells (liver cancer cell line)
Description: as §1, §2, §3, §4, §5, §6, §7, §8, §9, §10

[6] = In vitro cytotoxic assay, PC-3; format: cell-based; details: human, PC-3 cells (prostate cancer cell line); further: 0.1-25 µM tested
Description: as §1, §2, §3, §4, §5, §6, §7, §8, §9, §10

[7] = In vitro cytotoxic assay, MDA-MB-468; format: cell-based; details: human, MDA-MB-468 cells (breast cancer cell line); read-out: In vitro cytotoxic activity IC50, MBA-MB4-68
Description: as §1, §2, §3, §4, §5, §6, §7, §8, §9, §10

seven tumor cell lines = experiment: In vitro cytotoxic assay, whole panel of cancer cell lines; format: cell-based, human; details: Homo sapiens; lowest to highest IC50 among the seven cancer cell lines, 48 h; read-out: IC50 span over the cancer cell lines
Description: as §1, §2, §3, §4, §5, §6, §7, §8, §9, §10

| Compound | melting point [°C] | IC50 at 48 h [1] [µM] | IC50 at 48 h [2] [µM] | IC50 at 48 h [3] [µM] | IC50 at 48 h [4] [µM] | IC50 at 48 h [5] [µM] | IC50 at 48 h [6] [µM] | IC50 at 48 h [7] [µM] | IC50 (seven tumor cell lines) [µM] |
| --- | --- | --- | --- | --- | --- | --- | --- | --- | --- |
| COc1cccc2c1C(=O)c1c(O)c3c(c(O)c1C2=O)C[C@@](O)(C(=O)CO)C[C@@H]3O[C@H]1C[C@H](N)[C@H](O)[C@H](C)O1 [Doxo, Doxorubicin, reference compound] | – | 0.03 | 0.05 | 0.02 | 0.05 | 0.03 | 0.08 | 0.04 | – |
| CC(=O)O[C@H]1C(=O)[C@@]2(C)[C@H]([C@H](OC(=O)c3ccccc3)[C@]3(O)C[C@H](OC(=O)[C@H](O)[C@@H](NC(=O)c4ccccc4)c4ccccc4)C(C)=C1C3(C)C)[C@]1(OC(C)=O)CO[C@@H]1C[C@@H]2O [Taxol, reference compound] | – | 0.02 | 0.003 | 0.01 | 0.006 | 0.016 | 0.004 | 0.003 | – |
| N#Cc1nc2c(ccc3c(=O)n(Cc4ccccc4)cnc32)s1 [Compound 5c, 7-Benzyl-6-oxo-6,7-dihydrothiazolo[5,4-h]quinazoline-2-carbonitrile] | 273 to 274 | 11 | 4 | 24 | 16 | 17 | 12 | 10 | 4 to 24 |
| N#Cc1nc2ccc3c(=O)n(Cc4ccccc4)cnc3c2s1 [Compound 5d, 7-Benzyl-6-oxo-6,7-dihydrothiazolo[4,5-h]quinazoline-2-carbonitrile] | – | 9 | 7 | 14 | 12 | 18 | 11 | 11 | 7 to 18 |

Continued, in another order:

| melting point [°C] | Compound | IC50 at 48 h [1] [µM] | IC50 at 48 h [2] [µM] | IC50 at 48 h [3] [µM] | IC50 at 48 h [4] [µM] | IC50 at 48 h [5] [µM] | IC50 at 48 h [6] [µM] | IC50 at 48 h [7] [µM] | IC50 (seven tumor cell lines) [µM] |
| --- | --- | --- | --- | --- | --- | --- | --- | --- | --- |
| 255 to 256 | COc1ccc(Nc2ncnc3cc4nc(C#N)sc4cc23)c(F)c1 [Compound 14b, 8-[(2-Fluoro-4-methoxyphenyl)amino]thiazolo[5,4-g]quinazoline-2-carbonitrile] | – | – | – | – | – | – | – | – |
| 259 to 260 | COc1ccc(Nc2ncnc3cc4sc(C#N)nc4cc23)c(F)c1 [Compound 14a, 8-[(2-Fluoro-4-methoxyphenyl)amino]thiazolo[4,5-g]quinazoline-2-carbonitrile] | – | – | – | – | – | – | – | – |
| 237 to 238 | N#Cc1nc2cc3c(=O)n(Cc4ccccc4)cnc3cc2s1 [Compound 5a, 7-Benzyl-8-oxo-7,8-dihydrothiazolo[4,5-g]quinazoline-2-carbonitrile] | 10 | 7 | > 25 | 8 | > 25 | 9 | 11 | 7 to 62 |
| 217 to 218 | N#Cc1nc2cc3ncn(Cc4ccccc4)c(=O)c3cc2s1 [Compound 5b, 7-Benzyl-8-oxo-7,8-dihydrothiazolo[5,4-g]quinazoline-2-carbonitrile] | 1 | 2 | 3 | 2 | 3 | 2 | 1 | 1 to 3 |

Reference: publication PMC11597202, “Novel Thiazole-Fused [4,5-g] or [5,4-g]Quinazolin-8-ones and Their Quinazoline Analogues: Synthesis and Biological Evaluation” (Pharmaceuticals, 2024)
